The values below come from US20040049072A1, “RXR modulators with improved pharmacologic profile” (priority 1999, published 2004).

Series [1] concerns Crl:CD-1 (ICR)BR mice. Briefly: teratogenicity in pregnant Crl:CD-1 (ICR)BR mice. It is filed as in vivo, mouse. Particulars: for teratogenicity in fetuses: daily oral gavage, gestation days 6-18, L6 30 or 200 mg/kg-day, LG100268 30 or 100 mg/kg-day. How it is done:
Teratogenicity is commonly evaluated by examination of fetuses obtained by cesarean section from pregnant mice dosed daily with test compound between gestation days 6-18. We have conducted a blinded study using time-mated female Crl:CD-1® (ICR)BR mice to evaluate potential developmental toxicity (teratogenicity) following administration of L6 at either 30 or 200 mg/kg-day by daily oral gavage for the specified […] of gestation. Each test group consisted of 7-8 pregnant females and produced approx. 100 live fetuses per test group. […] The highest dose of L6 tested (200 mg/kg-day) is twice the dose required to produce maximum antidiabetic activity in db/db mice (100 mg/kg-day).

Series [2] relates to db/db mouse. Nature of the series: db/db mouse study (rodent model of Type II diabetes). Particulars: for inhibition in vivo at 30 mg/kg: Mus musculus, po, 168 h, read-out: db/db mouse Glu. (D7); for db/db mouse Trigs. (D3): plasma triglycerides as % of control values, day 3, 30 mg/kg/day.
Description: Mice (obtained from Jackson Laboratory), ZDF rats (obtained from Genetic Models Inc.) and fa/fa rats (obtained from either Charles River, or Harlan) were maintained on 12-hour light/dark cycle. […] Compounds were administered at the specified doses by oral gavage on the morning of each day of any experiment. Blood samples were obtained 3 hours after dosing from fed animals under anesthesia and collected into heparinized capillary tubes from the tail vein.
The target of series [3] is T1, (Homo sapiens, UniProt P19793).
T1 sequence (P19793 1-462): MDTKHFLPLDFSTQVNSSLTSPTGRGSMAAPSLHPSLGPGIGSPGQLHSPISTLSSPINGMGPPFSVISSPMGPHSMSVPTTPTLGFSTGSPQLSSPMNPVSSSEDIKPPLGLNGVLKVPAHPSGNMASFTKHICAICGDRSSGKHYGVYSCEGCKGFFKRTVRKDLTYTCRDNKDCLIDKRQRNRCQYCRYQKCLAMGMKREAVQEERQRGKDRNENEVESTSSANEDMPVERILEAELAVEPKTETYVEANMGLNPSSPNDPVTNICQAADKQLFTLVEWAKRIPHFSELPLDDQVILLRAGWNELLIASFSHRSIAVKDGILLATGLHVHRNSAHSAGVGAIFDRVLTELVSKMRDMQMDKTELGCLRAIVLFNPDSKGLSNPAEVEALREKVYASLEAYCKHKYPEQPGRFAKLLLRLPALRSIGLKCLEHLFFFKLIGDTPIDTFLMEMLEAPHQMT
Nature of the series: RXR homodimer co-transfection assay in CV-1 cells. It is filed as cell-based. Particulars: CV-1. The source says: (§1) In the co-transfection assay, cloned cDNA for one or more IRs (e.g., human RARα, RXRα, or PPARγ), alone or in combination (i.e. for heterodimer assays) under the control of a constitutive promoter (e.g., the SV 40, RSV or CMV promoter) is introduced by transfection (a procedure to introduce exogenous genes into cells) into a background cell substantially devoid of endogenous IRs. These introduced gene(s) direct the recipient cells to make the IR protein(s) of interest. A further gene is also introduced (co-transfected) into the same cells in conjunction with the IR gene(s). This further gene, comprising the cDNA for a reporter protein, such as firefly luciferase (LUC), controlled by an appropriate hormone responsive promoter containing a hormone response element (HRE). This reporter plasmid functions as a reporter for the transcriptional-modulating activity of the target IR(s). Thus, the reporter acts as a surrogate for the products (mRNA then protein) normally expressed by a gene under control of the target receptor(s) and their native hormone(s).
(§2) Exposing the transfected cells to an agonist ligand compound increases reporter activity in the transfected cells. This activity can be conveniently measured, e.g., by increasing luciferase production and enzymatic activity, which reflects compound-dependent, IR-mediated increases in reporter transcription. […] Increasing concentrations of an antagonist will decrease the reporter signal (e.g., luciferase production). The co-transfection assay is therefore useful to detect both agonists and antagonists of specific IRs. Furthermore, it determines not only whether a compound interacts with a particular IR, but whether this interaction mimics (agonizes) or blocks (antagonizes) the effects of native or synthetic regulatory molecules on target gene expression, as well as the specificity and strength of this interaction.
(§3) The receptor expression plasmid was cotransfected along with a reporter plasmid at 50 ng/well, the internal control plasmid pRS-β-Gal at 50 ng/well and filler DNA, pGEM, at 90 ng/well.
(§4) Six hours after transfection, media was removed and the cells were washed with phosphate-buffered saline (PBS). Media containing compounds of the present invention in concentrations ranging from 10^−10 to 10^−5 M were added to the cells. […] Retinoids were dissolved in dimethylsulfoxide for use in the transcriptional activation assays. Two to three replicates were used for each sample. Transfections and subsequent procedures were performed on a Biomek 1000 automated workstation.
(§5) After 40 hours, the cells were washed with PBS, lysed with a detergent-based buffer and assayed for LUC and β-Gal activities using a luminometer or spectrophotometer, respectively. For each replicate, the normalized response (NR) was calculated as: […]
(§6) The mean and standard error of the mean (SEM) of the NR were calculated. Data were plotted as the response of the compound compared to the reference compounds over the range of the dose-response curve. […] Antagonist activity was determined by testing the amount of LUC expression in the presence of the RXR agonists described above at the EC50 concentration for such known compounds. […] In addition, the efficacy of antagonists was determined as a function (%) of maximal inhibition.

For series [4], the target named is T2, RXRα (Homo sapiens, UniProt P19793).
T2 sequence (P19793 1-462): T1 sequence (P19793 1-462)
Briefly: RXRα binding (competition with tritiated LGD1069). Particulars: Table 2; from IC50 by Cheng-Prussof equation, tritiated LGD1069; read-out: Bind RXRα Ki. How it is done: Non-specific binding was defined as that binding remaining in the presence of 500 nM of the appropriate unlabelled compound. At the end of the incubation period, bound ligand was separated from free. The amount of bound tritiated retinoid was determined by liquid scintillation counting of an aliquot (700 μL) of the supernatant fluid or the hydroxylapatite pellet.
After correcting for non-specific binding, IC50 values were determined. […] The IC50 value was determined graphically from a log-logit plot of the data. The Ki values were determined by application of the Cheng-Prussof equation to the IC50 values, the labeled ligand concentration and the Kd of the labeled ligand.

Series [5] addresses T3, RXRα:RAR heterodimer (Homo sapiens, UniProt P19793).
T3 construct: expressed in transfected cells; host or cells: CV-1 cells
T3 sequence (P19793 1-462): T1 sequence (P19793 1-462)
Nature of the series: RXR:RAR heterodimer co-transfection assay in CV-1 cells. It is filed as cell-based. The method, then: (§7) For determination of agonist activity in the context of the RXR:RAR heterodimer or the RXR:PPARγ heterodimer, media containing compounds of the present invention in concentrations ranging from 10^−10 to 10^−5 M were added to the cells.
(§8) Compounds of the present invention were also tested for the ability to synergize with a PPARγ agonist in the context of an RXR heterodimer. […] Efficacy of the compounds of the present invention in the agonist and synergy assays was calculated as the maximum response obtained over the range of the dose response curve relative to the maximum response obtained by the reference agonist. Antagonist efficacy was determined as a function (%) of maximal inhibition.
However, when RAR is occupied, typical RXR agonists activate the heterodimer. […] To examine the effects of the compounds of the present invention on the transcriptional properties of the RXR:RAR heterodimer, a heterodimer cotransfection assay as described above was employed.

Series [6] addresses T4, RXRα homodimer (RXR:RXR) (Homo sapiens, UniProt P19793).
T4 sequence (P19793 1-462): T1 sequence (P19793 1-462)
Briefly: RXR homodimer co-transfection assay in CV-1 cells. It counts as cell-based. Particulars: CV-1, read-out: RXR:RAR CV-1 (%) Ag.
Description: as §1, §2, §3, §4, §5, §6

Series [7] has as its target T5, RXRα:PPARγ heterodimer (Homo sapiens, UniProt P19793).
T5 construct: expressed in transfected cells; host or cells: CV-1 cells
T5 sequence (P19793 1-462): T1 sequence (P19793 1-462)
T5 sequence (P37231 1-505 partner): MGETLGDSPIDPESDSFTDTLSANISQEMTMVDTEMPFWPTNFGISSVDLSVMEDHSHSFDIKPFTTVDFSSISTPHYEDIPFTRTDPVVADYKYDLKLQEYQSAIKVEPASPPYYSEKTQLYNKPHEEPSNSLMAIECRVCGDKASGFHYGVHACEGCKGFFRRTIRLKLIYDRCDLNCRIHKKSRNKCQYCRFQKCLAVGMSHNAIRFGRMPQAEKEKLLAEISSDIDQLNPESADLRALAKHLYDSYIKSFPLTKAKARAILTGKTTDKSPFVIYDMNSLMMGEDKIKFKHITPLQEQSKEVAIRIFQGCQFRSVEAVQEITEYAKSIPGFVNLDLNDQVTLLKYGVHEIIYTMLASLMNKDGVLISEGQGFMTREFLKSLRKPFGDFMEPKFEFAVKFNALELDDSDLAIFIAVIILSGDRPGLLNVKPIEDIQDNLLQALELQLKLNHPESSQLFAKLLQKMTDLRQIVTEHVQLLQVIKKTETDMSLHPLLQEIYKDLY
Nature of the series: RXR:PPARγ heterodimer co-transfection assay in CV-1 cells. It counts as cell-based. The method, then:
as §7, §8
To examine the effects of the compounds of the present invention on the transcriptional properties of the RXR:PPARγ, a heterodimer cotransfection assay as described above was employed.

In series [8] the test system is mice transgenic for the human apolipoprotein A-I gene. Nature of the series: transgenic mice carrying the human apo A-I gene (HDL cholesterol, triglycerides). It is filed as in vivo, mouse. The source says: Mice transgenic for the human apolipoprotein A-I gene (obtained from Jackson Laboratory) were used to evaluate PPARalpha mediated effects on HDL cholesterol. The mice were handled as described above for db/db mice, except that they were fed Purina 5001.

Where [9] appears, read: rodent models of Type II Diabetes.

pKi: −log10 of the molar value. Entries after “also recorded” stand apart in the source; their conditions may differ. Like-named read-outs stand apart in the source and are kept apart here.

Turning to `CCCCOc1c(\C(C)=C/C=C/C(C)=C/C(=O)O)cc(C(C)C)cc1C(C)C` [Compound L6], the “Corpora lutea, implantation sites, live or dead fetuses, resorptions, fetal weight or sex, external and cranial visceral morphology” value in series [1] (L6 at 30 or 200 mg/kg-day compared to vehicle controls) is “no effects were observed”. Moreover, the teratogenicity in fetuses result in series [1] is “no teratogenic effects were observed”. Also, in series [2] (db/db mice), the “dose required to produce maximum antidiabetic activity in db/db mice” value is 100 mg/kg-day. In addition, the “insulin sensitizing activity with thyroid axis suppression and triglyceride elevations” value in series [2] (setting [9]) was “maintain the desirable insulin sensitizing activity and eliminate or reduce both the suppression of the thyroid axis and triglyceride elevations; also recorded: maintain the desirable insulin sensitizing activity and minimize both the suppression of the thyroid axis and triglyceride elevations”.

For the molecule `CC(/C=C/C1=C(c2cc(C(C)C)cc(C(C)C)c2OCCCF)CCC1)=C\C(=O)O` [Compound L14], the Emax in series [3] (Table 2, first RXR:RAR head (c4), maximal repression (100%) in presence of 32 nM LGD1069 (RXR:RXR), read-out: RXR:RAR CV-1 (%) Antag.) came to 80%; in series [3] (read-out: RXR:RAR CV-1 (%) Ag.), 3%; in series [5] (CV-1; read-out: RXR:RAR CV-1 (%) Ag.), 2%. In addition, the inhibition in vivo at 30 mg/kg in series [2] is 45%. Moreover, the “db/db mouse Trigs. (D3)” value in series [2] is reported as 138%. For the same molecule, in series [2] (setting [9]), the “insulin sensitizing activity with thyroid axis suppression and triglyceride elevations” value is “maintain the desirable insulin sensitizing activity and minimize both the suppression of the thyroid axis and triglyceride elevations”. For the same molecule, the pKi in series [4] is 8.30.

For `C/C(=C/C=C/C(C)=C/C(=O)O)c1cc(-c2ccccc2F)cc(C(C)C)c1OCC(F)F` [Compound L19], in series [6], the Emax was 3%. Also, in series [7], the “PPARγ CV-1 (%) Synergy” value worked out at 47%. In addition, in series [2], the inhibition in vivo at 30 mg/kg was found to be 68% and the “db/db mouse Trigs. (D3)” value is reported as 187%. Moreover, the “insulin sensitizing activity with thyroid axis suppression and triglyceride elevations” value in series [2] (setting [9]) was “maintain the desirable insulin sensitizing activity and minimize both the suppression of the thyroid axis and triglyceride elevations”. Besides, the pKi in series [4] was 9.00. Further, the Emax in series [5] (CV-1, read-out: RXR:RAR CV-1 (%) Ag.) is 2%.

Consider `Cc1cc2c(cc1C1(c3ccc(C(=O)O)cn3)CC1)C(C)(C)CCC2(C)C` [LG100268, 6-[1-(3,5,5,8,8-pentamethyl-5,6,7,8-tetrahydronaphthalen-2-yl)cyclopropyl]nicotinic acid, reference compound], for which, in series [1], the teratogenicity in fetuses entry is “Teratogenicity was observed”. For the same molecule, in series [2], the inhibition in vivo at 30 mg/kg was 73% and the “db/db mouse Trigs. (D3)” value was 195%. Further, in series [2] (plasma glucose, % correction relative to lean values, day 14, 100 mg/kg daily oral gavage), the “db/db mouse Glu. (D 14)” value came out at 73%. The “db/db mouse Trigs. (D 14)” value in series [2] (plasma triglycerides, % correction relative to lean values, day 14, NC = no change) came to 82%. Moreover, in series [2] (setting [9]), the “effect on the thyroid hormone axis” value is listed as “suppress the thyroid hormone axis”, the “effect on triglycerides” value is reported as “raise triglycerides” and the “insulin sensitizing activity / effect on glucose” value is reported as “efficacious insulin sensitizers”. Also, the “db/db mouse T4 (D 3)” value in series [2] (total T4 as % of obese control values, day 3, NC = no change) is given as 43%. Further, the triglycerides entry in series [8] is “substantially raise triglycerides”.
